Structures can show the parent of a compound that is named as a salt.
Key:
human B1R receptor = target: T1, human B1R receptor (Homo sapiens, UniProt P46663); experiment: Functional study on the bradykinin receptor 1 (B1R), FLIPR Ca2+ assay, hB1R cells; assay type: cell-based; conditions: CHO-K1, test substance 10 μM, agonist Lys-Des-Arg9-bradykinin 0.5 nM, % inhibition compared with the maximum achievable inhibition, read-out: B1R Antagonism, human [10 μM] % Inhibition
T1 construct: host or cells: CHO K1 cells (Chinese hamster ovary), stably transfected
T1 sequence (P46663 1-353): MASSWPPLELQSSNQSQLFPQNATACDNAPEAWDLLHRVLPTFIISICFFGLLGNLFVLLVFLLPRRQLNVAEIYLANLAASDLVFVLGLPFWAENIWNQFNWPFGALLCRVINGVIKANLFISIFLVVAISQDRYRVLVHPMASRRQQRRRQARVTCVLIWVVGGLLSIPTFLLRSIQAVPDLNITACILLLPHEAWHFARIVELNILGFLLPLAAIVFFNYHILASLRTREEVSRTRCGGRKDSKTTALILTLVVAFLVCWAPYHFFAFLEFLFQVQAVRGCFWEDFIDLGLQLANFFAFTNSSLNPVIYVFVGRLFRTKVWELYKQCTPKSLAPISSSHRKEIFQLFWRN
Method in brief: (§1)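 Readout: peak Fluo-4 Ca2+ fluorescence, FLIPR. Stable CHO K1 hB1R or rB1R cells; cpd 10 μM, 10 min preincubation, then agonist (hB1R: Lys-Des-Arg9-BK 0.5 nM; rB1R: Des-Arg9-BK 100 nM). Value = % inhibition relative to maximal achievable inhibition.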

B1R receptor of the rat = target: T2, B1R receptor of the rat (Rattus norvegicus, UniProt P97583); experiment: Functional study on the bradykinin receptor 1 (B1R), FLIPR Ca2+ assay, rB1R cells; assay type: cell-based; conditions: CHO-K1, test substance 10 μM, agonist Des-Arg9-bradykinin 100 nM, % inhibition compared with the maximum achievable inhibition, read-out: B1R Antagonism, rat [10 μM] % Inhibition
T2 construct: host or cells: CHO K1 cells (Chinese hamster ovary), stably transfected
T2 sequence (P97583 1-337): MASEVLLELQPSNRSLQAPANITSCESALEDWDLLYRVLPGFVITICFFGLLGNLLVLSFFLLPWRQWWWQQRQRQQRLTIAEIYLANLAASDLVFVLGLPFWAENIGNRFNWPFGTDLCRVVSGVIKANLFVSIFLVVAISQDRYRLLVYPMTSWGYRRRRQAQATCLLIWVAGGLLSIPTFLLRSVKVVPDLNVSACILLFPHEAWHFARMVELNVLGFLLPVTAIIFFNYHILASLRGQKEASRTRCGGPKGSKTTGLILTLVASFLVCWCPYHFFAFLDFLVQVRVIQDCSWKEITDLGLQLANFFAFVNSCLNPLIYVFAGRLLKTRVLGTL
Method in brief: as §1

O=C(COCC1CCCN1S(=O)(=O)c1c(Cl)cc(Cl)cc1Cl)NCc1ccc(N2CCCCC2)cc1 (stereo not drawn) [Example 71, N-(4-piperidin-1-yl-benzyl)-2-[1-(2,4,6-trichloro-phenylsulfonyl)-pyrrolidin-2-yl-methoxy]-acetamide]
inhibition at 10 µM (human B1R receptor): 53.2% | inhibition at 10 µM (B1R receptor of the rat): 95.2%

O=C(COCC1CCCN1S(=O)(=O)c1ccc(Cl)c(Cl)c1)N1CCN(CCN2CCCCC2)CC1 (stereo not drawn) [Example 72, 2-((1-(3,4-dichlorophenylsulfonyl)pyrrolidin-2-yl)methoxy)-1-(4-(2-(piperidin-1-yl)-ethyl)piperazin-1-yl)ethanone]
inhibition at 10 µM (human B1R receptor): 52.6% | inhibition at 10 µM (B1R receptor of the rat): 13.2%

CN(C)Cc1ccc(CNC(=O)COCC2CCCN2S(=O)(=O)c2c(Cl)cc(Cl)cc2Cl)cc1 (stereo not drawn) [Example 73, N-(4-dimethylaminomethyl-benzyl)-2-[1-(2,4,6-trichloro-phenylsulfonyl)-pyrrolidin-2-ylmethoxy]-acetamide]
inhibition at 10 µM (human B1R receptor): 51% | inhibition at 10 µM (B1R receptor of the rat): 106%

O=C(COCC1CCCCN1S(=O)(=O)c1c(Cl)cc(Cl)cc1Cl)NCc1ccc(N2CCCCC2)cc1 (stereo not drawn) [Example 74, N-(4-piperidin-1-yl-benzyl)-2-[1-(2,4,6-trichloro-phenylsulfonyl)-piperidin-2-yl-methoxy]-acetamide]
inhibition at 10 µM (human B1R receptor): 50.4% | inhibition at 10 µM (B1R receptor of the rat): 103%

Cc1cc(C)c(S(=O)(=O)N2Cc3ccccc3CC2COCC(=O)NCc2ccccc2N2CCN(C)CC2)c(C)c1 (stereo not drawn) [Example 75, N-[2-(4-methyl-piperazin-1-yl)-benzyl]-2-[2-(2,4,6-trimethyl-phenylsulfonyl)-1,2,3,4-tetrahydro-isoquinolin-3-ylmethoxy]-acetamide]
inhibition at 10 µM (human B1R receptor): 50.1% | inhibition at 10 µM (B1R receptor of the rat): 9.11%

Cc1cc(C)c(S(=O)(=O)N2CCCCC2COCC(=O)Nc2cccc(CN3CCCCC3)c2)c(C)c1 (stereo not drawn) [Example 76, N-(3-piperidin-1-ylmethyl-phenyl)-2-[1-(2,4,6-trimethyl-phenylsulfonyl)-piperidin-2-ylmethoxy]-acetamide]
inhibition at 10 µM (human B1R receptor): 48.9% | inhibition at 10 µM (B1R receptor of the rat): 40.3%

COc1cccc(N2CCN(C(=O)COCC3CCCCN3S(=O)(=O)c3c(C)cc(C)cc3C)CC2)c1 (stereo not drawn) [Example 77, 1-[4-(3-methoxy-phenyl)-piperazin-1-yl]-2-[1-(2,4,6-trimethyl-phenylsulfonyl)-piperidin-2-ylmethoxy]-ethanone]
inhibition at 10 µM (human B1R receptor): 48% | inhibition at 10 µM (B1R receptor of the rat): 105%

CN(C(=O)COCC1Cc2ccccc2CN1S(=O)(=O)c1ccc(Cl)cc1Cl)C1CCN(Cc2ccccc2)C1 (stereo not drawn) [Example 78, N-(1-benzyl-pyrrolidin-3-yl)-2-[2-(2,4-dichloro-phenylsulfonyl)-1,2,3,4-tetrahydro-isoquinolin-3-ylmethoxy]-N-methyl-acetamide]
inhibition at 10 µM (human B1R receptor): 45.7% | inhibition at 10 µM (B1R receptor of the rat): 35.2%

O=C(COCC1Cc2ccccc2CN1S(=O)(=O)c1ccc(Cl)cc1Cl)N1CCCN(Cc2ccccc2)CC1 (stereo not drawn) [Example 79, 1-(4-benzyl-[1,4]diazepan-1-yl)-2-[2-(2,4-dichloro-phenylsulfonyl)-1,2,3,4-tetra-hydro-isoquinolin-3-ylmethoxy]-ethanone]
inhibition at 10 µM (human B1R receptor): 45.5% | inhibition at 10 µM (B1R receptor of the rat): 54.5%

Cc1cc(C)c(S(=O)(=O)N2CCCCC2COCC(=O)NCc2ccccc2N2CCN(C)CC2)c(C)c1 (stereo not drawn) [Example 80, N-[2-(4-methyl-piperazin-1-yl)-benzyl]-2-[1-(2,4,6-trimethyl-phenylsulfonyl)-piperidin-2-ylmethoxy]-acetamide]
inhibition at 10 µM (human B1R receptor): 45.3% | inhibition at 10 µM (B1R receptor of the rat): 22.5%

O=C(COCC1Cc2ccccc2N1S(=O)(=O)c1ccc(Cl)c(Cl)c1)NCc1ccc(CN2CCCC2)cc1 (stereo not drawn) [Example 81, 2-[1-(3,4-dichloro-phenylsulfonyl)-2,3-dihydro-1H-indol-2-ylmethoxy]-N-(4-pyrrolidin-1-ylmethyl-benzyl)-acetamide]
inhibition at 10 µM (human B1R receptor): 44.9% | inhibition at 10 µM (B1R receptor of the rat): 34.1%

O=C(COCC1Cc2ccccc2CN1S(=O)(=O)c1ccc(Cl)c(Cl)c1)N1CCCC1CN1CCCCC1 (stereo not drawn) [Example 82, 2-[2-(3,4-dichloro-phenylsulfonyl)-1,2,3,4-tetrahydro-isoquinolin-3-ylmethoxy]-1-(2-piperidin-1-ylmethyl-pyrrolidin-1-yl)-ethanone]
inhibition at 10 µM (human B1R receptor): 44.9% | inhibition at 10 µM (B1R receptor of the rat): 4.42%

Cc1cc(C)c(S(=O)(=O)N2Cc3ccccc3CC2COCC(=O)NCc2ccc(CN3CCCC3)cc2)c(C)c1 (stereo not drawn) [Example 83, N-(4-pyrrolidin-1-ylmethyl-benzyl)-2-[2-(2,4,6-trimethyl-phenylsulfonyl)-1,2,3,4-tetrahydro-isoquinolin-3-ylmethoxy]-acetamide]
inhibition at 10 µM (human B1R receptor): 43.9% | inhibition at 10 µM (B1R receptor of the rat): 30.8%

COc1ccc(N2CCN(C(=O)COCC3CCCCN3S(=O)(=O)c3ccc(Cl)c(Cl)c3)CC2)cc1 (stereo not drawn) [Example 84, 2-[1-(3,4-dichloro-phenylsulfonyl)-piperidin-2-ylmethoxy]-1-[4-(4-methoxy-phenyl)-piperazin-1-yl]-ethanone]
inhibition at 10 µM (human B1R receptor): 43.7% | inhibition at 10 µM (B1R receptor of the rat): 0%

CN(C)CCCN1CCN(C(=O)COCC2CCCCN2S(=O)(=O)c2ccc(Cl)c(Cl)c2)CC1 (stereo not drawn) [Example 85, 2-[1-(3,4-dichloro-phenylsulfonyl)-piperidin-2-ylmethoxy]-1-[4-(3-dimethylamino-propyl)-piperazin-1-yl]-ethanone]
inhibition at 10 µM (human B1R receptor): 43.7% | inhibition at 10 µM (B1R receptor of the rat): 40.8%

O=C(COCC1CCCCN1S(=O)(=O)c1ccc(Cl)c(Cl)c1)N1CCN(c2ccccc2F)CC1 (stereo not drawn) [Example 86, 2-[1-(3,4-dichloro-phenylsulfonyl)-piperidin-2-ylmethoxy]-1-[4-(2-fluoro-phenyl)-piperazin-1-yl]-ethanone]
inhibition at 10 µM (human B1R receptor): 43.2% | inhibition at 10 µM (B1R receptor of the rat): 0%

Cc1cc(C)c(S(=O)(=O)N2CCCCC2COCC(=O)Nc2ccc(-n3ccnc3C)cc2)c(C)c1 (stereo not drawn) [Example 87, N-[4-(2-methyl-imidazol-1-yl)-phenyl]-2-[1-(2,4,6-trimethyl-phenylsulfonyl)-piperidin-2-ylmethoxy]-acetamide]
inhibition at 10 µM (human B1R receptor): 42.7% | inhibition at 10 µM (B1R receptor of the rat): 44.4%

CN(C)CCCN1CCN(C(=O)COCC2CCCN2S(=O)(=O)c2ccc(Cl)c(Cl)c2)CC1 (stereo not drawn) [Example 88, 2-[1-(3,4-dichloro-phenylsulfonyl)-pyrrolidin-2-ylmethoxy]-1-[4-(3-dimethylamino-propyl)-piperazin-1-yl]-ethanone]
inhibition at 10 µM (human B1R receptor): 42.1% | inhibition at 10 µM (B1R receptor of the rat): 7.33%

O=C(COCC1CCCN1S(=O)(=O)c1ccc(Cl)c(Cl)c1)N1CCN(c2ccccc2)CC1 (stereo not drawn) [Example 89, 2-[1-(3,4-dichloro-phenylsulfonyl)-pyrrolidin-2-ylmethoxy]-1-(4-phenyl-piperazin-1-yl)-ethanone]
inhibition at 10 µM (human B1R receptor): 41.3% | inhibition at 10 µM (B1R receptor of the rat): 0%

COc1ccc(S(=O)(=O)N2CCCCC2CCOCC(=O)N2CCC(CCN3CCCCC3)CC2)cc1 (stereo not drawn) [Example 90, 2-(2-(1-(4-methoxyphenylsulfonyl)piperidin-2-yl)ethoxy)-1-(4-(2-(piperidin-1-yl)-ethyl)piperidin-1-yl)ethanone]
inhibition at 10 µM (human B1R receptor): 50% | inhibition at 10 µM (B1R receptor of the rat): 99.5%

COc1cc(C)c(S(=O)(=O)N2CCCCC2COCC(=O)N2CCN(Cc3cccc(C#N)c3)CC2)c(C)c1 (stereo not drawn) [Example 92, 3-((4-(2-((1-(4-methoxy-2,6-dimethylphenylsulfonyl)piperidin-2-yl)methoxy)acetyl)-piperazin-1-yl)methyl)benzonitrile hydrochloride]
inhibition at 10 µM (human B1R receptor): 103% | inhibition at 10 µM (B1R receptor of the rat): 101%

COc1cc(C)c(S(=O)(=O)N2CCCC2COCC(=O)N2CCN(Cc3cccc(C#N)c3)CC2)c(C)c1 (stereo not drawn) [Example 93, 3-((4-(2-((1-(4-methoxy-2,6-dimethylphenylsulfonyl)pyrrolidin-2-yl)methoxy)acetyl)-piperazin-1-yl)methyl)benzonitrile hydrochloride]
inhibition at 10 µM (human B1R receptor): 106% | inhibition at 10 µM (B1R receptor of the rat): 99.1%

COc1cc(C)c(S(=O)(=O)N2CCCCC2COCC(=O)N2CCC(CCN3CCCC3)CC2)c(C)c1 (stereo not drawn) [Example 94, 2-((1-(4-methoxy-2,6-dimethylphenylsulfonyl)piperidin-2-yl)methoxy)-1-(4-(2-(pyrrolidin-1-yl)ethyl)piperidin-1-yl)ethanone hydrochloride]
inhibition at 10 µM (human B1R receptor): 105% | inhibition at 10 µM (B1R receptor of the rat): 103%

COc1cc(C)c(S(=O)(=O)N2CCCC2COCC(=O)N2CCC(CCN3CCCC3)CC2)c(C)c1 (stereo not drawn) [Example 95, 2-((1-(4-methoxy-2,6-dimethylphenylsulfonyl)pyrrolidin-2-yl)methoxy)-1-(4-(2-(pyrrolidin-1-yl)ethyl)piperidin-1-yl)ethanone]
inhibition at 10 µM (human B1R receptor): 107% | inhibition at 10 µM (B1R receptor of the rat): 101%

Reference: US8435978B2, “Substituted sulfonamide compounds” (Gruenenthal GmbH, priority 2006, dated 2013)
